The text below walks through data of publication PMC11923649, “Novel C-2 Aromatic Heterocycle-Substituted Triterpenoids Inhibit Hedgehog Signaling in GLI1 Overexpression Cancer Cells” (ACS Omega, 2025).

Where only a bound is given, the exact number is not on record here.

One assay relates to DAOY (medulloblastoma). Nature of the assay: MTS cytotoxicity assay, 72 h, DAOY. As to conditions: Homo sapiens, read-out: IC50 medulloblastoma (DAYO). The class given is cell-based. From the text: (§1) Concerning nonsmall cell lung carcinoma (NSCLC)-derived cell lines, we selected two subtype groups with different expression levels of GLI1, based on a study by Yuan et al.[35] The first group includes cell lines where GLI1 is highly expressed (A549 and NCI-H522), while the second group includes low GLI1-expressing cell lines (HOP-62 and NCI-H322). It has been established that cell lines expressing high levels of GLI1 are relatively resistant to SMO antagonists due to a hyper-activated HH signaling pathway.[35] […] These interesting findings may indicate the potential of 11b to overcome hyper-activated HH signaling in particular NSCLC subsets. […] Lower activity was observed against medulloblastoma (DAYO) and glioblastoma (T98G)-derived cell lines with an IC50 above 20 μmol/L.
(§2) The human prostate tumor-derived cell line DU145 was obtained from ATCC (American Type Culture Collection) and cultured in RPMI 1640 (Roswell Park Memorial Institute) medium supplemented with 10% (v/v) fetal bovine serum (FBS). Human prostate tumor-derived LNCaP cells were obtained from ATCC and cultured in RPMI 1640 medium supplemented with 10% FBS. […] Finally, the absorbance at 490 nm was measured using an EnVision multifunctional modular reader (PerkinElmer). The IC50 value was determined using Dotmatics software.

The next assay concerns HOP-62 (NSCLC, low GLI1). Nature of the assay: MTS cytotoxicity assay, 72 h, HOP-62. The format is cell-based, human. The note with it: compared with A549.
Source text: as §1, §2
In general terms: Formazan colour is commonly taken as a measure of viable cells.

Assay [1] has as its system NCI-H322 (NSCLC, low GLI1). Nature of the assay: MTS cytotoxicity assay, 72 h, NCI-H322. The note with it: compared with A549. The format is cell-based, human.
Source text: as §1, §2

Another assay has as its system T98G (glioblastoma). Nature of the assay: MTS cytotoxicity assay, 72 h, T98G. The class given is cell-based. The note with it: Homo sapiens.
Source text: as §1, §2

In the case of `C=C(C)[C@@H]1CC[C@]2(C(=O)O)CC[C@]3(C)C(CCC4[C@@]5(C)C=C(c6ccoc6)C(=O)C(C)(C)C5CC[C@]43C)C12` (stereo partly shown) [Compound 11b, 2-(Furan-3-yl)-3-oxolupa-1,20(29)-dien-28-oic acid], the IC50 with DAOY (medulloblastoma) and with T98G (glioblastoma) was > 20 µM each time. Besides, the “IC50 of HOP-62 relative to A549” value in the assay with HOP-62 (NSCLC, low GLI1) is on record as “almost two times higher”. The “IC50 of NCI-H322 relative to A549” value in assay [1] was “almost two times higher”.

As usually defined, the IC50 is the concentration that gives 50% inhibition.
